Assay results from paper PMC4666649, “The Influence of the 1-(3-Trifluoromethyl-Benzyl)-1H-Pyrazole-4-yl Moiety on the Adenosine Receptors Affinity Profile of Pyrazolo[4,3-e][1,2,4]Triazolo[1,5-c]Pyrimidine Derivatives” (PLoS ONE, 2015).
Where a name gives a salt, the structure may show the parent alone. Read-outs that look alike come from different tables or passages of the source.

How the values were obtained:
hA3 AR [1] = molecular target: T1, hA3 AR (Homo sapiens, UniProt P0DMS8); assay: Radioligand binding at human A3 ARs, displacement of [3H]HEMADO, membranes of transfected CHO cells; conditions: for Ki, hA1/hA3 (selectivity) / Ki, hA2a/hA3 (selectivity) / Ki, hA2b/hA3 (selectivity): ratio of Ki values, for reference compounds from literature affinities (Borea et al. unless otherwise indicated)
T1 construct: expressed in transfected cells; host or cells: CHO cells, stably transfected
T1 sequence (P0DMS8 1-318): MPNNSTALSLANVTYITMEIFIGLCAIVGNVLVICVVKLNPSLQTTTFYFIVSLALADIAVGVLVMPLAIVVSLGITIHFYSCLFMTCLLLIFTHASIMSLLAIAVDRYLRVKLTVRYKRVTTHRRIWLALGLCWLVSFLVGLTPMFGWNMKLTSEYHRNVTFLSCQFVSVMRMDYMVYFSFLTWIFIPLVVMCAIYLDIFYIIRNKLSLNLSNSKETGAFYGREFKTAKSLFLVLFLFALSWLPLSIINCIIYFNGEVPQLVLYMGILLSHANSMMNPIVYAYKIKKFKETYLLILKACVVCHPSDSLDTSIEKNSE

hA3 AR [2] = molecular target: T1, hA3 AR; conditions: cited from earlier work; for Ki: reference xanthines
hA1 AR = molecular target: T2, hA1 AR (Homo sapiens, UniProt P30542); assay: Radioligand binding at human A1 ARs, displacement of [3H]CCPA, membranes of transfected CHO cells
T2 sequence (P30542 1-326): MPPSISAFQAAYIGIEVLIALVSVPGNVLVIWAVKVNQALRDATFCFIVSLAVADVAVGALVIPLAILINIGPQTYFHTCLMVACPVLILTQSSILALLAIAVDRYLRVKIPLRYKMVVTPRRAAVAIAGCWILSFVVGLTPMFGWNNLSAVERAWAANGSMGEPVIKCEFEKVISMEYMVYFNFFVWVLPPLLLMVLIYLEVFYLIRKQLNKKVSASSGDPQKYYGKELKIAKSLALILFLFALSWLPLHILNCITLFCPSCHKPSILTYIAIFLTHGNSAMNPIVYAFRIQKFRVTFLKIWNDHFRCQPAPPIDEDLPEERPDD

hA2A AR [3] = molecular target: T3, hA2A AR (Homo sapiens, UniProt P29274); assay: Radioligand binding at human A2A ARs, displacement of [3H]NECA, membranes of transfected CHO cells
T3 construct: expressed in transfected cells; host or cells: CHO cells, stably transfected

hA2B AR = molecular target: T4, hA2B AR (Homo sapiens, UniProt P29275); assay: Inhibition of NECA-stimulated adenylyl cyclase activity in CHO cells expressing hA2B ARs; format: biochemical
T4 construct: expressed in transfected cells; host or cells: CHO cells, stably transfected
T4 sequence (P29275 1-332): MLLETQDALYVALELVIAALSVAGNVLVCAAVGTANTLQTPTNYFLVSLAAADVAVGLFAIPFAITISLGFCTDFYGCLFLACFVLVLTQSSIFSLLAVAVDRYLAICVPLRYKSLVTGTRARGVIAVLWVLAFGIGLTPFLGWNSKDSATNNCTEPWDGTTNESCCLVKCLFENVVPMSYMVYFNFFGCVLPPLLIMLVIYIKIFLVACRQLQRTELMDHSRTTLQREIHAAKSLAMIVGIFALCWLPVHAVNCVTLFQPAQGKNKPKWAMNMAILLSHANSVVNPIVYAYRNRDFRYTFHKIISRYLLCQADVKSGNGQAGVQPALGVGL

hA2A AR [4] = molecular target: T3, hA2A AR; conditions: reference xanthines; cited from earlier work
[5] = displacement of specific [3H]-CCPA binding, CHO cells, n = 3–6, geometric means with 95% confidence limits, read-out: hA1 AR (Ki nM)
[6] = displacement of specific [3H]-NECA binding, CHO cells, geometric means with 95% confidence limits, read-out: hA2A AR (Ki nM)
[7] = displacement of specific [3H]-HEMADO binding, CHO cells, geometric means with 95% confidence limits, read-out: hA3 AR (Ki nM)
[8] = competition for [3H]HEMADO, total binding, single experiment (S1 Fig), read-out: Ki, hA3 AR, representative single experiment

T3 sequence (P29274 whole entry): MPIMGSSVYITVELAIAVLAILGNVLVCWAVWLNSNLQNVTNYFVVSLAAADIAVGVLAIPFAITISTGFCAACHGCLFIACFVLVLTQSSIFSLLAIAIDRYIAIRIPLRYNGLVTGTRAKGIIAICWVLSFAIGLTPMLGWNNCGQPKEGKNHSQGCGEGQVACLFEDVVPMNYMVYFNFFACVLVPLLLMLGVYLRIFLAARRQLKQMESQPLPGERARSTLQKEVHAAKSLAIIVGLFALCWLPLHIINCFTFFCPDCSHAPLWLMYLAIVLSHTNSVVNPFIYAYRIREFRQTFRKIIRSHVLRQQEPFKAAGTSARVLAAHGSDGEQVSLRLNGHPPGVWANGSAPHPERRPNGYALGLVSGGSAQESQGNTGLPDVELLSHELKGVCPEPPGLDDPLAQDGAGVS

| Compound | Ki, hA1/hA3 (selectivity) (hA3 AR [1]) | Ki, hA2a/hA3 (selectivity) (hA3 AR [1]) | Ki (hA1 AR; [5]) | Ki (hA2A AR [3]; [6]) | Ki (hA2B AR) | Ki (hA3 AR [1]; [7]) | melting point | Ki, hA2b/hA3 (selectivity) (hA3 AR [1]) | also measured |
| --- | --- | --- | --- | --- | --- | --- | --- | --- | --- |
| Cn1cc2c(nc(NC(=O)Nc3ccncc3)n3nc(-c4ccco4)nc23)n1 [MRE3005F20 (HCl), reference compound] | 35000 | 10000 | – | – | – | – | – | 25000 | – |
| CCCCC#Cc1nc(NC)c2ncn([C@@H]3O[C@H](CO)[C@@H](O)[C@H]3O)c2n1 [[^3H]HEMADO, [^3H]2-(1-Hexynyl)-N-methyladenosine] | – | – | – | – | – | – | – | – | Kd (hA3 AR [2]; radioligand used at 1 nM, read-out: KD of radioligand at A3 AR): 1.1 nM |
| Cn1c(=O)c2[nH]c(-c3cnn(Cc4cccc(C(F)(F)F)c4)c3)nc2n(C)c1=O [compound 1, 8-(1-(3-(trifluoromethyl)benzyl)-1H-pyrazol-4-yl)-1,3-dimethyl-1H-purine-2,6(3H,7H)-dione, reference compound] | 1 | 1 | – | – | – | – | – | – | – |
| Cn1cc2c(nc(NC(=O)Cc3ccccc3)n3nc(-c4cnn(Cc5cccc(C(F)(F)F)c5)c4)nc23)n1 [compound 6, N-{8-Methyl-2-[1-(3-trifluoromethyl-benzyl)-1H-pyrazol-4-yl]-8H-pyrazolo[4,3-e][1,2,4]triazolo[1,5-c]pyrimidin-5-yl}-phenyl-acetamide] | – | > 9091 | > 100000 nM | > 100000 nM | > 10000 nM | 11 nM | 190 °C | > 909 | Ki (hA3 AR [1]; [8]): 17 nM |
| CCCn1c(=O)c2[nH]c(-c3cnn(Cc4cccc(C(F)(F)F)c4)c3)nc2n(CCC)c1=O [compound 33, reference compound] | 3 | 4 | – | – | – | – | – | – | Ki (hA2A AR [4]): 230 nM; Ki (hA3 AR [2]): 56 nM |
| CCCn1c(=O)c2[nH]c(-c3cnn(Cc4cccc(F)c4)c3)nc2n(CCC)c1=O [compound 36, reference compound] | 1 | 3 | – | – | – | – | – | – | Ki (hA2A AR [4]): 400 nM; Ki (hA3 AR [2]): 150 nM |

Now from value to compound, other results behind:

| Ki, hA1/hA3 (selectivity) (hA3 AR [1]) | Ki, hA2a/hA3 (selectivity) (hA3 AR [1]) | Ki (hA1 AR; [5]) | Ki (hA2A AR [3]; [6]) | Ki (hA2B AR) | Ki (hA3 AR [1]; [7]) | melting point | Compound | Ki, hA2b/hA3 (selectivity) (hA3 AR [1]) | also measured |
| --- | --- | --- | --- | --- | --- | --- | --- | --- | --- |
| – | 4 | 703 nM | 8280 nM | > 10000 nM | 2360 nM | 125 °C | Cn1cc2c(nc(N)n3nc(-c4cnn(Cc5cccc(C(F)(F)F)c5)c4)nc23)n1 [compound 3, 8-methyl-2-[1-(3-trifluoromethyl-benzyl)-1H-pyrazol-4-yl]-8H-pyrazolo[4,3-e][1,2,4]triazolo[1,5-c]pyrimidin-5-ylamine] | 4 | Ki (hA1 AR; competition with [3H]CCPA, total binding, single experiment (S2 Fig), read-out: Ki, hA1 AR, representative single experiment): 764 nM; hA1 AR (Ki nM) (hA1 AR; displacement of specific [3H]-CCPA binding, CHO cells, n = 3–6, geometric means with 95% confidence limits): almost inactive; Ki (hA2A AR [3]; competition with [3H]NECA, total binding, single experiment (S3 Fig), read-out: Ki, hA2A AR, representative single experiment): 6820 nM; hA2A AR (Ki nM) (hA2A AR [3]; displacement of specific [3H]-NECA binding, CHO cells, geometric means with 95% confidence limits): almost inactive; hA2B AR (Ki nM) (hA2B AR): almost inactive; hA3 AR (Ki nM) (hA3 AR [1]; displacement of specific [3H]-HEMADO binding, CHO cells, geometric means with 95% confidence limits): almost inactive |
| – | – | 3890 nM | 2460 nM | > 10000 nM | 46.7 nM | – | Cn1cc2c(nc(NC(=O)Nc3ccccc3)n3nc(-c4cnn(Cc5cccc(C(F)(F)F)c5)c4)nc23)n1 [compound 4, 1-{8-Methyl-2-[1-(3-trifluoromethyl-benzyl)-1H-pyrazol-4-yl]-8H-pyrazolo[4,3-e][1,2,4]triazolo [1,5-c]pyrimidin-5-yl}-3-phenylurea] | – | Ki (hA3 AR [1]; [8]): 39 nM |
| – | – | 25500 nM | > 100000 nM | > 10000 nM | 138 nM | – | Cn1cc2c(nc(NC(=O)c3ccccc3)n3nc(-c4cnn(Cc5cccc(C(F)(F)F)c5)c4)nc23)n1 [compound 5, N-{8-Methyl-2-[1-(3-trifluoromethyl-benzyl)-1H-pyrazol-4-yl]-8H-pyrazolo[4,3-e][1,2,4]triazolo[1,5-c]pyrimidin-5-yl}-benzamide] | – | – |
| – | – | 4390 nM | 20500 nM | > 10000 nM | 53 nM | 178 °C | COc1ccc(CC(=O)Nc2nc3nn(C)cc3c3nc(-c4cnn(Cc5cccc(C(F)(F)F)c5)c4)nn23)cc1 [compound 7] | – | – |
